Reference: patent US20220242851A1, “CRYSTAL FORM AND SALT OF QUINAZOLINE COMPOUND AND PREPARATION METHOD THEREOF” (SHENZHEN JINRUI FOUNDATION BIOTECH CO., LTD, priority 2019, published 2022)

Tests used:
Pharmacokinetics in mice = assay type: in vivo, mouse
Description: Purpose of the assay: this assay aimed to investigate in vivo plasma pharmacokinetics of the example compound disclosed herein and the reference compound in female BALB/c mice after the single intravenous injection and intragastric administration thereof.
Animals of the assay: female BALB/c nude mice, 7-9 weeks old, weighted 17-23 grams; supplier: shanghai sippr bk laboratory animals Ltd.
Sample collection: at each time point, a 0.03 mL blood sample was collected from the saphenous vein of the assay animal by puncture, and the actual blood collection time was recorded. All blood samples were added into commercial EDTA-K2 anticoagulation tubes with a specification of 1.5 mL (the supplier was Jiangsu KANGJIAN Medical Apparatus Co., Ltd.). Within half an hour after the blood sample was collected, the blood sample was centrifuged at 3000 g at 4° C. for 10 minutes, and the supernatant plasma was drawn, quickly placed in dry ice, and stored in a refrigerator at −80° C. for LC-MS/MS analysis.
Data analysis: Plasma concentrations were processed using a non-compartmental model of WinNonlin™Version6.3 (Pharsight, MountainView, Calif.) pharmacokinetic software, and pharmacokinetic parameters Cmax, Tmax, T1/2, and AUC0-last were calculated using a linear log trapezoid method.

OE19 cells = assay: CTG assay of OE19 cells; assay type: cell-based; conditions: conclusion
Description: OE19 cells with saturation of 80%-90% were digested with trypsin, centrifuged, resuspended and counted. The concentration of cells was adjusted to […]. OE19 cells were added to a 96-well cell culture plate to 8000 OE19 cells per well. The cells were cultured in a cell incubator containing 5% CO2 at 37° C. overnight.
The stock solution of the assay compounds was serially 3-fold diluted with DMSO to a total of 10 concentrations. Before the start of the assay, the serially diluted assay compounds were further diluted to 10×compound solutions (the highest concentration of 100 μM containing 1% DMSO) with cell culture medium under sterile conditions. The prepared 10×compound solutions were added to the cell culture plate with 10 μL per well. […]
After 72 hours of cell culture, the 96-well cell culture plate was taken out. […] The cell plate was placed in Envision for reading.
The inhibition rate was calculated according to original data as follows: […]
Non-linear regression analysis was performed using the processed data and GraphPad Prism 6 analysis software to obtain a dose-response curve, and the half-inhibitory concentration (IC50) of the assay compounds on OE19 cells was calculated.

CYP2C19 = target: T1, CYP2C19 (Homo sapiens, UniProt P33261); assay: Inhibition of CYP enzyme activity in human liver microsome, CYP2C19; assay type: in vitro ADME
T1 construct: in the assay of CYP enzyme activity in human liver microsome; from tissue; host or cells: human liver microsome
Description: (§1) The results of the compound disclosed herein and the reference compound Poziotinib in the assay of CYP enzyme activity in human liver microsome were shown in the following table (Table 17).

CYP1A2 = target: T2, CYP1A2 (Homo sapiens, UniProt P05177); assay: Inhibition of CYP enzyme activity in human liver microsome, CYP1A2; assay type: in vitro ADME; conditions: microsomes
T2 construct: in the assay of CYP enzyme activity in human liver microsome; from tissue; host or cells: human liver microsome
T2 sequence (P05177 1-516): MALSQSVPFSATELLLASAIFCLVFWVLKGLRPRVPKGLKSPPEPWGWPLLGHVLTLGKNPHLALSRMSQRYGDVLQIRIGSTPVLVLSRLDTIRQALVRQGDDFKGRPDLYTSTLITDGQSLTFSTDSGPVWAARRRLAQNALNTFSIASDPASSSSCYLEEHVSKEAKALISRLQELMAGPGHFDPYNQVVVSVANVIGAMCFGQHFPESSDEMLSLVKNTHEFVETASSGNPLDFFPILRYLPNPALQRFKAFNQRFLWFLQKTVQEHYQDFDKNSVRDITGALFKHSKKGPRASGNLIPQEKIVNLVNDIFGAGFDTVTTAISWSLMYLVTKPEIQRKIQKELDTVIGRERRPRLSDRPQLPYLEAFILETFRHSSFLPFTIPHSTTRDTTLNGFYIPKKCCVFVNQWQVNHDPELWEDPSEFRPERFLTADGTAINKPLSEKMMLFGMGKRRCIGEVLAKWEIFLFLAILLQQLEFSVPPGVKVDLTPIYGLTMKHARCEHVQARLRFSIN
Description: as §1

NCI-N87 cell = assay: Inhibition of cell proliferation, Cell-Titer-Glo, NCI-N87; assay type: cell-based, human; conditions: conclusion
Description: Purpose of the assay: the inhibitory activity of the assay compounds on cell proliferation was detected. Principle of the assay: the luciferase in a Cell-Titer-Glo reagent produces oxidized luciferin with luciferin, oxygen and ATP as reaction substrates, and releases energy in the form of light. Since the luciferase reaction requires ATP, the total amount of light generated by the reaction is proportional to the total amount of ATP that reflects cell viability. Cell line: NCI-N87 cell line (ATCC-CRL-5822), BT-474 cell line (ATCC-HTB-20), OE21 (ECACC-96062201) Cell culture medium: […] L-[…]×, Gibco#25030-081; penicillin-streptomycin Hyclone# SV30010) Cell Titer-Glo® cell viability assay kit with luminescence (Promega #G7573) 384-well cell culture plate (Greiner # 781090) Compound plate (LABCYTE # LP-0200) CO2 incubator (Thermo#371) Vi-cell cell counter (Beckman Coulter) According to the schematic diagram of the cell seed plate, cells were seeded in a 384- or 96-well plate at a density of 1000 cells per well and 25 μL per well, and 25 μL of PBS was added to the wells near edge of the place where no cells were seeded. (1) The stock solution of the compounds has a concentration of 10 mM, and the compounds were diluted with DMSO to an initial concentration of 4 mM. […] After 10 minutes, the plate was read on PerkinElmer Envision, and the […] reading time was set to 0.2 second.

T1 sequence (P33261 whole entry): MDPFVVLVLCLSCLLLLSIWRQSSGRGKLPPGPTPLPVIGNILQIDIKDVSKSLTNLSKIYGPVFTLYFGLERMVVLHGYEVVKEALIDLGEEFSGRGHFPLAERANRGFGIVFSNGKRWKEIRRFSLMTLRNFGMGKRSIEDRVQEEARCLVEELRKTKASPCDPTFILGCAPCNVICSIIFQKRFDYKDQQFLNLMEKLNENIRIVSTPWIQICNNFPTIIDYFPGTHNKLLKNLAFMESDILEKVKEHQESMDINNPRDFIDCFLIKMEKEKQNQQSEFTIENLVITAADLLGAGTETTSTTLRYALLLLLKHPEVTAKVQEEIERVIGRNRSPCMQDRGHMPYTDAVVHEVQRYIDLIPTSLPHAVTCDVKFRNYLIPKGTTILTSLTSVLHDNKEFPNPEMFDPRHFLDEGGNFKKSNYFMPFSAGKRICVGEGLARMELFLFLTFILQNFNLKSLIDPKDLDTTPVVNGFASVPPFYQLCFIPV

**Q.** What does the source list for `C=CC(=O)N1[C@@H]2CC[C@H]1C[C@H](Nc1cc3c(Nc4ccc(Cl)c(Cl)c4F)ncnc3cc1OC)C2` [Compound of formula (I)]?
**A.** half-life compared with reference (in words) (Pharmacokinetics in mice): longer half-life than that of the reference compound; oral plasma exposure compared with Poziotinib and control compound 2 (in words) (Pharmacokinetics in mice): significantly better oral plasma exposure; inhibitory activity on the proliferation of OE19 cells (in words) (OE19 cells): significant inhibitory activity; inhibitory activity on CYP2C19 compared with Poziotinib (in words) (CYP2C19): comparable to that of the reference compound Poziotinib; inhibitory activity on CYP1A2 (in words) (CYP1A2): no inhibitory activity; inhibitory activity on the proliferation of NCI-N87 cells (in words) (NCI-N87 cell): significant inhibitory activity
